The values below come from US7538233B2, “Coumarins as iNOS inhibitors” (Aventis Pharmaceuticals Inc., priority 2003, dated 2009).

Holding throughout (assay type): biochemical
One assay has as its target Human NOS-2 (Homo sapiens, UniProt P35228). Kind of assay: Human NOS-2 assay ([3H]-arginine to [3H]-citrulline conversion). The note with it: 60 min at 37° C., 2.5 μM L-[3H]arginine; * mean of 3, ** mean of 2 determinations; read-out: Human iNOS, IC50.
A further assay addresses T1, Bovine NOS-3 (eNOS) (Bos taurus, UniProt P29473).
T1 construct: purchased Cayman Chemical 60880; host or cells: Baculovirus / Sf9 cells
Kind of assay: Bovine NOS-3 (eNOS) assay ([3H]-arginine to [3H]-citrulline conversion). The conditions noted are these: recombinant bovine NOS-3, 120 min, 10 μM L-[3H]arginine; ** mean of 2 determinations.

For a further assay, the target named is T2, Rat NOS-1 (nNOS) (Rattus norvegicus, UniProt P29476).
T2 construct: purchased Cayman Chemical 60870; host or cells: Baculovirus / Sf9 cells
T2 sequence (P29476 whole entry): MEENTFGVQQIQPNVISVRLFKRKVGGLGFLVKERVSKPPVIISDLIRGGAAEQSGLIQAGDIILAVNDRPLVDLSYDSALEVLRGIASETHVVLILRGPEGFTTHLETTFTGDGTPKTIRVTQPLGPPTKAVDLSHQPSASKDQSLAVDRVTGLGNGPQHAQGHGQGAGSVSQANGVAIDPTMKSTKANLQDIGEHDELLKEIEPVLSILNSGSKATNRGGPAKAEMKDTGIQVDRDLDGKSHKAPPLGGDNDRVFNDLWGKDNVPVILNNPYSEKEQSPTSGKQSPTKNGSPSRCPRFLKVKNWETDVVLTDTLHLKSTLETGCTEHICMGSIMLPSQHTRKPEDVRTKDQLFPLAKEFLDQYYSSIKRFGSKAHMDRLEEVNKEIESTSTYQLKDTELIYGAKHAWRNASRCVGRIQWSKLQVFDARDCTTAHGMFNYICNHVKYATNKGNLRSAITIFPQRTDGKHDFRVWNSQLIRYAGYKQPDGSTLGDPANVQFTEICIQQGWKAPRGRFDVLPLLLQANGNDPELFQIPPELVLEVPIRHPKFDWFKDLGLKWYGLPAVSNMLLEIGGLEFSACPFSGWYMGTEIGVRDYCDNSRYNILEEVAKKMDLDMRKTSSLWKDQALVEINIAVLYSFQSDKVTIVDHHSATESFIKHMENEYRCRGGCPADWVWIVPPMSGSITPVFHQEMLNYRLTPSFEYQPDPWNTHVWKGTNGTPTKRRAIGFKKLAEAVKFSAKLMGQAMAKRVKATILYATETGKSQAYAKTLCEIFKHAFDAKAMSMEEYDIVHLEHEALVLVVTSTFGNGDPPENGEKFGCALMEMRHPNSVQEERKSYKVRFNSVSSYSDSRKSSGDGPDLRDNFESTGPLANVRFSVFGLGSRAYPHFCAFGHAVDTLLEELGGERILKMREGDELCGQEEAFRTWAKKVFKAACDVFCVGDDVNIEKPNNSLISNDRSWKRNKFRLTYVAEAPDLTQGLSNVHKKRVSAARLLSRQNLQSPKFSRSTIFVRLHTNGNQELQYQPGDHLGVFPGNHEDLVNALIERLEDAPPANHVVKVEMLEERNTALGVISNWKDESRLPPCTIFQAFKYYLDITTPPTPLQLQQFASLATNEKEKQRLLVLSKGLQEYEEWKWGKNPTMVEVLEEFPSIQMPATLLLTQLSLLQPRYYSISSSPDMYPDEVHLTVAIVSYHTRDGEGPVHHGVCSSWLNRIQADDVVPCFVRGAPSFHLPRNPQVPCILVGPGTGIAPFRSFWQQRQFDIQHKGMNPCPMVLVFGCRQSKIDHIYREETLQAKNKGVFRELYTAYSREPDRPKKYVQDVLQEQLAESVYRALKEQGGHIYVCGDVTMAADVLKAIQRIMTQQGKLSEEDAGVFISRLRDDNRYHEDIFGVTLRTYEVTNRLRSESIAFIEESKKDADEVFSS
Kind of assay: Rat NOS-1 (nNOS) assay ([3H]-arginine to [3H]-citrulline conversion). The note with it: recombinant rat nNOS, 20 min at 37° C., 2 μM L-[3H]arginine; * mean of 3 determinations.

The next assay concerns the target T3, Murine NOS-2 (iNOS) (Mus musculus, UniProt P29477).
T3 construct: purchased Cayman Chemical 60864; host or cells: E. coli
Briefly: Murine NOS-2 (iNOS) assay ([3H]-arginine to [3H]-citrulline conversion). The note with it: recombinant murine NOS-2, 20 min at 37° C., 10 uM L-[3H]arginine; ** mean of 2 determinations.

T3 sequence (P29477 whole entry): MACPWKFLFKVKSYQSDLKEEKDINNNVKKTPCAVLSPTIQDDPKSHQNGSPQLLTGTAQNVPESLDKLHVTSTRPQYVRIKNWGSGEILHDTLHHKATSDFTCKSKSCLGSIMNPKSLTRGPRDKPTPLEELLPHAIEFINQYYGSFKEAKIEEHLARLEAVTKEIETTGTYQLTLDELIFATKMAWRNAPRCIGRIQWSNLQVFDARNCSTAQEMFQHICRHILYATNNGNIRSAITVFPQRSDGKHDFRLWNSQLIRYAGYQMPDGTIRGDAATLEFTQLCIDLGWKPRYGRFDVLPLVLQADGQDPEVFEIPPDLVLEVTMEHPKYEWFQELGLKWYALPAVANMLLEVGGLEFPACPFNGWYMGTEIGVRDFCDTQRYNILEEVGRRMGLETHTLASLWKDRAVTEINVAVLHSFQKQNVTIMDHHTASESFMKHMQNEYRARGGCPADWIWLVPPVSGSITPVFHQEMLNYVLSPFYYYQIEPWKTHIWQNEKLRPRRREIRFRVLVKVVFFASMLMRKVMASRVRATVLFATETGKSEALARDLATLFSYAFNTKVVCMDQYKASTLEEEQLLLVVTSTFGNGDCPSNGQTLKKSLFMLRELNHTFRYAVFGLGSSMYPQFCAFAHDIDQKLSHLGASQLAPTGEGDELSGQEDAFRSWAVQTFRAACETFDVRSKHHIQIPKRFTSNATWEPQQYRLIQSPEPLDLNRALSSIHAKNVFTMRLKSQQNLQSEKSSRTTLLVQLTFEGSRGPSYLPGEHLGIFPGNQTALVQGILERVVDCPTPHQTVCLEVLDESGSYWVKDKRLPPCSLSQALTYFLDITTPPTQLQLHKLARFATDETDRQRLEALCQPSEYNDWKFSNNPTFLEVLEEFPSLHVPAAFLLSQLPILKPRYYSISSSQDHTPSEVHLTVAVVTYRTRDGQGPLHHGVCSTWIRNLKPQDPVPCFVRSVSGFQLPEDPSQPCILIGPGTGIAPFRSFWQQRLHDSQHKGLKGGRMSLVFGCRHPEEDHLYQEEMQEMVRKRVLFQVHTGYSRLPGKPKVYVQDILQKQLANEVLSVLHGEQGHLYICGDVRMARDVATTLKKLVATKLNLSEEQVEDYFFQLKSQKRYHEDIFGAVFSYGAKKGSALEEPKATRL
Sequence of Human NOS-2 (P35228 whole entry): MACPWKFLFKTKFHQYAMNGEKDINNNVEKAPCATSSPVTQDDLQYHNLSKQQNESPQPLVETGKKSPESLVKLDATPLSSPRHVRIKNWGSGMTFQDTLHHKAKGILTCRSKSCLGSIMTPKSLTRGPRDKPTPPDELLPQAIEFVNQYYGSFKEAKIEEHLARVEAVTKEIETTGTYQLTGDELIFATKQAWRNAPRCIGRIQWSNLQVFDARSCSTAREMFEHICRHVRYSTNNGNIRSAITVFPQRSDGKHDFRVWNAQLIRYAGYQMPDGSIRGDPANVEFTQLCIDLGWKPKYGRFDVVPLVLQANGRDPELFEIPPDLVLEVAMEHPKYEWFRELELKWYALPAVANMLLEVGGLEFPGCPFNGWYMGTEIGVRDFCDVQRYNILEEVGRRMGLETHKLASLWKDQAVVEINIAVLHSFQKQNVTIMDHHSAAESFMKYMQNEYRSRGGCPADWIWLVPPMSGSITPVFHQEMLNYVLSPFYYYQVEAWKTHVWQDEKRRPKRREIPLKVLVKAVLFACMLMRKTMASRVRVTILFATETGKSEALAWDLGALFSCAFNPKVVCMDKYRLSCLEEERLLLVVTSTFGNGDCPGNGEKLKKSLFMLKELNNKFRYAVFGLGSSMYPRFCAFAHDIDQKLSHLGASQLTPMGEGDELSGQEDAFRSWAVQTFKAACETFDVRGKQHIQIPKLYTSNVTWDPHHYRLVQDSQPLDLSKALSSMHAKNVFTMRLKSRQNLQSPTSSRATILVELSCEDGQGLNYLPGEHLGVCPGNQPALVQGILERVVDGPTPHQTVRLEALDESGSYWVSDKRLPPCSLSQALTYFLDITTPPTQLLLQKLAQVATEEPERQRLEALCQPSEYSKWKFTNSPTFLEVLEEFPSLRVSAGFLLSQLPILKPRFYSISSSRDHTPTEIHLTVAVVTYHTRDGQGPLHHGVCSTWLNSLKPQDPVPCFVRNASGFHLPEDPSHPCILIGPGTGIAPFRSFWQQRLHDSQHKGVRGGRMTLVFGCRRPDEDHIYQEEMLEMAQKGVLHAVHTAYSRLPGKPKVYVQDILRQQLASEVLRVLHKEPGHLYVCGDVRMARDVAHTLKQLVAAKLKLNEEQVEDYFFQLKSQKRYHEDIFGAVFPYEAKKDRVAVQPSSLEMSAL
T1 sequence (P29473 2-1205): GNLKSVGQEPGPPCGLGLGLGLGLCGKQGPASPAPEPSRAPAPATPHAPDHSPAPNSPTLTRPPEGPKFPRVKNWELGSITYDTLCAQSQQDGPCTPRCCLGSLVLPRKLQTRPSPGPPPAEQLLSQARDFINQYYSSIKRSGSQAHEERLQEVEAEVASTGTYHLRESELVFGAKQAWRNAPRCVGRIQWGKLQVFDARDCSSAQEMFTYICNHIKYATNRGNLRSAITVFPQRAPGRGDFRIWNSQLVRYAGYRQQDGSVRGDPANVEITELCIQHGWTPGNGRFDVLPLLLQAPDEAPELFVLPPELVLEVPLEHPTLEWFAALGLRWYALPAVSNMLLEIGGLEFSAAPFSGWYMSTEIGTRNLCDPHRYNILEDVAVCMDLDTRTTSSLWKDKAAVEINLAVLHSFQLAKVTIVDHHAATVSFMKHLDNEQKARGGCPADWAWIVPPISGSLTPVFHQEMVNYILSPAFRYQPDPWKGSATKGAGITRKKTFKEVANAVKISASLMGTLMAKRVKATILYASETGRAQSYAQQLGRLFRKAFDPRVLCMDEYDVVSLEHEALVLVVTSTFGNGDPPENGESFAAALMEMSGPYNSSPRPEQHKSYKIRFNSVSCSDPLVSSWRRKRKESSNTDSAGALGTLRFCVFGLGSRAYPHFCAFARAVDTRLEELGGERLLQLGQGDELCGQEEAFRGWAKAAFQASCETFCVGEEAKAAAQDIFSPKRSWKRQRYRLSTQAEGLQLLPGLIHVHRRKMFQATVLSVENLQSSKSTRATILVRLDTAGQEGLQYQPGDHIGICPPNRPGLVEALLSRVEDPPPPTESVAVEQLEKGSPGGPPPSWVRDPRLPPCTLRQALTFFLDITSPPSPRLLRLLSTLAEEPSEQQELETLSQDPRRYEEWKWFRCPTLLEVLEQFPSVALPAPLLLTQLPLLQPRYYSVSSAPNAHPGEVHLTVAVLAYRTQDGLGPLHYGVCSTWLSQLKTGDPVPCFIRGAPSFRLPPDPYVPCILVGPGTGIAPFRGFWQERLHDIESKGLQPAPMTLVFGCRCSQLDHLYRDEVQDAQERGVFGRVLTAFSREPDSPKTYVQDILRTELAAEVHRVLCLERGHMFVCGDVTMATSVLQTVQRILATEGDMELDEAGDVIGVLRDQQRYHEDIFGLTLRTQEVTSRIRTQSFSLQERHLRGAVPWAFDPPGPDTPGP
Description for Bovine NOS-3 (eNOS): Experimental conditions (protein concentration, incubation time) required for measuring NOS activity (37° C.) in screening assays are controlled for each batch of enzyme prepared or commercially obtained.
(§1) 0.012 Units recombinant rat nNOS is incubated in Costar polystyrene 96-well microplates 20 min at 37° C. with 2 μM L-[^3H]arginine, 1 mM NADPH, 15 μM 6R-tetrahydrobiopterin, 1 μM FAD, and 10 μg/ml calmodulin prepared in HEPES buffer (50 mM, pH 7.4) containing 0.1 mM DL-dithiothreitol, 1 mM EDTA and 1.25 mM CaCl2 (final volume: 90 μl).
(§2) 0.06 μCi/well L-[^3H]arginine (Amersham; ˜55.0 Ci/mmol, 1 mCi/ml) is used.
(§3) The incubations are terminated by using the Beckman Multimek to transfer 60 ul of the assay solution into Millipore MAHV N45 plates, packed with 80 ul/well 500 mg of AG® 50W-X8 (counterion Na^+) cation exchange resin and pre-washed with 100 ul of HEPES buffer (100 mM, pH 5.5) containing 10 mM EGTA. After filtering under vacuum into opaque scintillation plates, approximately 220 ul of Packard Microscint-40 is added to each well using a Titertek multidrop. The plates are counted on a Packard TopCount to quantify L-[^3H]citrulline by liquid scintillation counting.
(§4) The recovery of L-[^3H]citrulline can be estimated by using L-[ureido-^14C]-citrulline (NEN; 58.8 mCi/mmol) as an external standard (4.05 nCi/0.09 ml). Specific NOS I-like activity corresponds to the L-NNA-sensitive formation of L-citrulline per minute and milligram of protein (pmol/min/unit of protein).
Aliquots of commercial enzyme fraction (quantity used variable from one batch to another, but normally 0.012 Units/90 ul reaction volume) are usually incubated for 120 min in the presence of 10 μM L-[^3H]arginine (0.15 uCi/well).
(§5) For all NOS assays in vitro, the inhibitory activities of screened compounds (usually tested at 10^−9-10^−4 M) are represented by their IC50 values determined by non-linear regression analysis with Activity Base Software (Data management system from IDBS Ltd).
Description for Human NOS-2: (§6) Experimental conditions (protein concentration, incubation time) required for measuring NOS activity (37° C.) in screening assays are controlled for each batch of enzyme prepared or commercially obtained. NOS enzymatic assays are based on the conversion of [^3H]-arginine into [^3H]-citrulline originally described by Bredt and Snyder (1990, Proc. Natl. Acad. Sci. USA 87, 682-685).
as §3
Human iNOS is used as 1:30 diluted preparation, is usually incubated for 60 min at 37° C. in the presence of 2.5 μM L-[^3H]arginine (0.06 uCi tracer/well).
as §5
Description for Murine NOS-2 (iNOS): A recombinant murine NOS-2 (inducible) preparation is purchased from Cayman Chemical (Catalog N^o 60864). This preparation corresponds to murine NOS-2 expressed in E. Coli, and represents a 100,000×supernatant. To avoid thawing/freezing cycles, this enzymatic preparation is divided into small fractions (25-100 μl) stored at −80° C. until use.
as §6, §2, §3
The recovery of L-[^3H]citrulline can be estimated by using L-[ureido-^14C]-citrulline (NEN; 58.8 mCi/mmol) as an external standard (4.05 nCi/0.09 ml).
as §5
Description for Rat NOS-1 (nNOS): To avoid thawing/freezing cycles, this enzymatic preparation is divided into small fractions (25-100 μl) stored at −80° C. until use.
as §6, §1, §2, §3, §4, §5

For orientation: IC50 means the point on the concentration scale where inhibition reaches its midpoint. On to `NCCCCCOc1cc(=O)oc2ccc(Cl)cc12` [Example 32, 4-(5-Amino-pentyloxy)-6-chloro-1-benzopyran-2-one], for which, on Human NOS-2, the IC50 is 1300 nM.

Take `NCCCOc1cc(=O)oc2ccc(F)cc12` [Example 12, 4-(3-Amino-propoxy)-6-fluoro-1-benzopyran-2-one]: the IC50 on Bovine NOS-3 (eNOS) is above 10 µM; on Rat NOS-1 (nNOS) it was 1600 nM; at Human NOS-2, 1100 nM; at Murine NOS-2 (iNOS), 440 nM.

As to `NCCCOc1cc(=O)oc2ccc(Cl)cc12` [Example 1, 6-Chloro-4-(3-aminopropoxy)-1-benzopyran-2-one], the IC50 on Bovine NOS-3 (eNOS) was above 10 µM; on Rat NOS-1 (nNOS), 560 nM; at Human NOS-2, 94 nM; at Murine NOS-2 (iNOS) it was 60 nM.

As for `CN(C)CCCOc1cc(=O)oc2ccc(Cl)cc12` [Example 22, 6-Chloro-4-(3-dimethylamino-propoxy)-1-benzopyran-2-one], the concentration for half-maximal inhibition (IC50) on Bovine NOS-3 (eNOS) was above 10 µM; on Rat NOS-1 (nNOS), 8000 nM; at Human NOS-2, 4100 nM; on Murine NOS-2 (iNOS) it was 1200 nM.

Regarding `O=c1cc(OCC2CCCNC2)c2cc(Cl)ccc2o1` (stereo not drawn) [Example 33, 6-Chloro-4-(piperidin-3-ylmethoxy)-1-benzopyran-2-one], the IC50 on Murine NOS-2 (iNOS) was found to be 1500 nM.

As to `NCCCCc1cc(=O)oc2ccc(Cl)cc12` [Example 57, 4-(4-Aminobutyl)6-chloro-1-benzopyran-2-one], the half-inhibitory concentration (IC50) on Human NOS-2 was 3600 nM.

Take `N=C(N)NCCCOc1cc(=O)oc2ccc(Cl)cc12` [Example 28, N-[3-(6-Chloro-2-oxo-2H-1-benzopyran-4-yloxy)-propyl]guanidine]: the IC50 at Bovine NOS-3 (eNOS) is above 10 µM; on Rat NOS-1 (nNOS) it was 500 nM; at Human NOS-2, 510 nM; on Murine NOS-2 (iNOS) it was 390 nM.

In the case of `O=c1cc(OCCC2CCCCN2)c2cc(Cl)ccc2o1` (stereo not drawn) [Example 34, 6-Chloro-4-(2-piperidin-2-yl-ethoxy)-1-benzopyran-2-one], the IC50 at Bovine NOS-3 (eNOS) is above 10 µM; on Rat NOS-1 (nNOS) it was 1000 nM; on Human NOS-2, 2000 nM; on Murine NOS-2 (iNOS), 4200 nM.

As for `NCCCOc1cc(=O)oc2ccccc12` [Example 19, 4-(3-Amino-propoxy)-1-benzopyran-2-one], the IC50 is above 10 µM at Bovine NOS-3 (eNOS), 9100 nM at Rat NOS-1 (nNOS), 7600 nM at Human NOS-2 and 7400 nM at Murine NOS-2 (iNOS).

Consider `CN(C)CCCOc1cc(=O)oc2ccccc12` [Example 2, 4-(3-Dimethylamino-propoxy)-1-benzopyran-2-one], for which the IC50 at Bovine NOS-3 (eNOS) is above 10 µM; at Rat NOS-1 (nNOS), above 10000 nM; on Human NOS-2 it was 4000 nM; on Murine NOS-2 (iNOS) it was above 10000 nM.

With `CNCCCOc1cc(=O)oc2ccc(Cl)cc12` [Example 3, 6-Chloro-4-(3-methylamino-propoxy)-1-benzopyran-2-one], the concentration for half-maximal inhibition (IC50) is above 10 µM on Bovine NOS-3 (eNOS), 530 nM on Rat NOS-1 (nNOS), 110 nM on Human NOS-2 and 250 nM on Murine NOS-2 (iNOS).

Consider `NCCCCOc1cc(=O)oc2ccc(Cl)cc12` [Example 31, 4-(4-Amino-butoxy)-6-chloro-1-benzopyran-2-one], for which the IC50 at Bovine NOS-3 (eNOS) is above 10 µM; on Rat NOS-1 (nNOS) it was above 10000 nM; at Human NOS-2, 2000 nM; on Murine NOS-2 (iNOS) it was 1000 nM.

Turning to `Cc1ccc2oc(=O)cc(OCCCN)c2c1` [Example 14, 4-(3-Amino-propoxy)-6-methyl-1-benzopyran-2-one], the half-maximal inhibitory concentration (IC50) on Bovine NOS-3 (eNOS) is above 10 µM; at Rat NOS-1 (nNOS), 650 nM; on Human NOS-2 it was 300 nM; on Murine NOS-2 (iNOS) it was 300 nM.

For the compound `NCCCOc1cc(=O)oc2ccc(Br)cc12` [Example 11, 4-(3-Amino-propoxy)-6-bromo-1-benzopyran-2-one], the half-inhibitory concentration (IC50) was above 10 µM at Bovine NOS-3 (eNOS), 360 nM on Rat NOS-1 (nNOS), 100 nM on Human NOS-2 and 140 nM at Murine NOS-2 (iNOS).

For `Cc1ccc2oc(=O)cc(OCCCN(C)C)c2c1` [Example 23, 4-(3-Dimethylamino-propoxy)-6-methyl-1-benzopyran-2-one], the IC50 is above 10 µM at Bovine NOS-3 (eNOS), above 10000 nM at Rat NOS-1 (nNOS), 4700 nM on Human NOS-2 and 3000 nM on Murine NOS-2 (iNOS).
